Measurements reported in publication PMC5556071, “ATR inhibition facilitates targeting of leukemia dependence on convergent nucleotide biosynthetic pathways” (Nature Communications, 2017).
Where “and” joins values, the source holds several entries; their conditions need not be identical. Identical values can stand only once.

Test system: CEM cells
Assay: Non-targeted LC-MS metabolite profiling: percent [13C6]glucose labeling and relative metabolite levels
Type: cell-based, human
Details: CEM cells, 12 h following release from G1 arrest, replicates #1-#6
Source text: To further investigate the functions of dCK and ATR at the G1/S transition in CEM cells, a non-targeted liquid chromatography mass spectrometry (LC-MS) assay was used to determine the utilization of labeled [^13C6]glucose and [^13C9,^15N3]deoxycytidine, the main substrates for de novo and salvage nucleotide biosynthesis, respectively. Of the 166 metabolites identified in CEM cells treated with VE-822 and/or dCKi, 105 metabolites found in all four treatment groups contained glucose-derived ^13C atoms. […] These metabolites included intermediates such as rUTP, rCTP and rCDP in the de novo dCTP biosynthesis (Fig. 1d). […] However, several deoxyribonucleotides, including dCTP, were below the limit of detection of the non-targeted LC-MS approach, raising the concern that the sensitivity of this assay is not sufficient to measure the contribution of the salvage pathway or the ratio of de novo and salvage biosynthesis to these pools. To address this problem, a newly developed targeted MS assay was developed (Fig. 1e and Supplementary Fig. 3). In this assay, samples containing either extracted dNTPs or hydrolyzed DNA from labeled cells are separated by LC for detection by a triple quadrupole mass spectrometer using multiple reaction monitoring (LC-MS/MS-MRM). The first (Q1) and third (Q3) quadrupoles function as mass filters, while the second (Q2) quadrupole serves as a collision chamber (Fig. 1e). For instance, to profile the biosynthetic composition of deoxycytidine (dC) derived from hydrolyzed DNA or dCTP, an intact, protonated dC ion is selected in Q1, followed by fragmentation of the glycosidic bond, which releases protonated cytosine in Q2, that is filtered in Q3 and detected to generate an ion chromatogram. The peak areas for the ion chromatograms of salvage [^13C9,^15N3]dC (red trace), de novo [^13C5]dC (black trace, from [^13C6]glucose) and unlabeled dC (gray trace) (Fig. 1e) are used to determine the relative contributions of the de novo and salvage routes both to dCTP pools and to DNA-incorporated dCTP.
Cells were transferred into RPMI-1640 without glucose and supplemented with 10% dialyzed FBS (Gibco) containing the following labeled substrates: precursors for de novo [U-^13C6]glucose (Sigma-Aldrich, 389374) at 11 mM; precursors for purine salvage [U-^13C10,^15N5]dA (Cambridge Isotopes, CIL 3896), [^15N5]dA (Cambridge Isotopes, NLM-3895) and [^15N5]dG (Cambridge Isotopes, NLM-3899) at 5 µM or as indicated; and precursors for pyrimidine salvage: [U-^13C9,^15N3]dC (Silantes, 124603602) and [U-^13C10,^15N2]dT (Cambridge Isotopes, CNLM-3902) at 5 µM and [^15N2]orotate (Cambridge Isotopes, NLM-1048) at indicated concentrations. The cells were incubated for 12 h or as indicated before sample collection and processing. […]
Non-targeted LC-MS metabolic assays. 1 x 10^6 cells were washed with ice-cold 150 mM ammonium acetate twice before adding 1 mL of ice-cold 80% methanol with 10 nM norvaline as an internal standard. After vigorous vortexing, samples were centrifuged at maximum speed, the aqueous layer was transferred to a glass vial and the metabolites were dried under vacuum. Metabolites were resuspended in 50 μL 70% acetonitrile (ACN) and 5 μL of this solution used for the mass spectrometer-based analysis. The analysis was performed on a Q Exactive (Thermo Scientific) in polarity-switching mode with positive voltage 4.0 kV and negative voltage 4.0 kV. The mass spectrometer was coupled to an UltiMate 3000RSLC (Thermo Scientific) UHPLC system. Mobile phase A was 5 mM ammonium acetate (NH4AcO), pH 9.9, B was acetonitrile and the separation achieved on a Luna […] NH2 100 A column (150 × 2.0 mm, Phenomenex). The flow was 200 μL/min, and the gradient ran from 15% A to 95% A in 18 min, followed by an isocratic step for 9 min and re-equilibration for 7 min. Metabolites were detected and quantified as area under the curve based on retention time and accurate mass (≤ 3 p.p.m.) using the TraceFinder 3.1 (Thermo Scientific). Relative amounts of […]

CNCc1ccc(-c2cc(-c3nc(-c4ccc(S(=O)(=O)C(C)C)cc4)cnc3N)on2)cc1 [VE-822]
Glucose labeling, Tyr (C00082): 0.00%
Glucose labeling, Uric Acid (C00366): 0.00%
Relative level, Orotate: 0.7
Glucose labeling, Lac (listed as V): 18.07% and 12.73% and 18.58% and 10.84% and 13.61% and 9.63%
Glucose labeling, Lys (listed as V): 0.00% (4×) and 1.11e-14% (2×)
Glucose labeling, Mal (listed as V): 21.43% and 21.55% and 21.63% and 20.66% and 20.63% and 19.36%
Glucose labeling, Met (listed as V): 0.00201% and 0.00233% and 0.002% and 0.0022% and 0.00164% and 0.00224%
Glucose labeling, N-Carbamoyl-L-aspartate (listed as V): 0.12% (3×) and 1.58% and 100.00% (2×)
Glucose labeling, NADP+ (listed as V): 0.00% (5×) and 100.00%
Glucose labeling, Nicotinamide (listed as V): 0.00% (4×) and -2.22e-14% and 1.11e-14%
Glucose labeling, Ornithine (listed as V): 0.12% (3×) and 0.10% and 0.0528% and 0.00133%
Glucose labeling, Orotate (listed as V): 100.00% (5×) and 0.0318%
Glucose labeling, Orotidine (listed as V): 33.66% and 31.88% and 29.83% and 33.19% and 33.56% and 35.92%
Glucose labeling, P-Choline (listed as V): 0.00204% (2×) and 0.00195% and 0.0016% and 0.00194% and 0.00159%
Glucose labeling, P-Ser (listed as V): 17.40% and 18.30% and 18.56% and 14.37% and 10.74% and 15.47%
Glucose labeling, Palmitate (listed as V): 0.0183% and 0.0339% and 0.00791% and 0.04% and 0.0649% and 0.00591%
Glucose labeling, Pantothenate (listed as V): 0.00% (5×) and 1.11e-14%
Glucose labeling, Pro (listed as V): 9.73% and 9.96% and 9.64% and 8.05% and 8.31% and 8.35%
Glucose labeling, Pro-OH (listed as V): 0.00141% and 0.00104% and 0.000977% and 0.00201% and 0.00147% and 0.00157%
Glucose labeling, R5P (listed as V): 100.00% (5×) and 87.46%
Glucose labeling, S7P (listed as V): 82.53% and 82.63% and 83.80% and 82.99% and 87.27% and 79.29%
Glucose labeling, SAM (listed as V): 61.24% and 62.78% and 63.01% and 60.62% and 59.88% and 60.86%
Glucose labeling, Ser (C00065) (listed as V): 11.13% and 10.40% and 10.89% and 9.46% and 9.59% and 9.87%
Glucose labeling, Shikimate (C00493) (listed as V): 0.00% (5×) and 1.11e-14%
Glucose labeling, Succ (C00042) (listed as V): 0.93% and 0.0737% (3×) and 0.000466% and 0.000404%
Glucose labeling, T (C00214) (listed as V): 0.47% and 0.23% and 0.34% and 0.00858% and 0.08% (2×)
Glucose labeling, Thymine (C00178) (listed as V): 0.000884% and 0.000908% and 0.01% and 0.02% (2×) and 0.000701%
Glucose labeling, Trp (C00078) (listed as V): 0.00% (4×) and -2.22e-14% and 1.11e-14%
Glucose labeling, Tyramine (C00483) (listed as V): 0.00% (4×) and -2.22e-14% and 1.11e-14%
Glucose labeling, UDP (C00015) (listed as V): 69.98% and 62.30% and 68.54% and 67.03% and 57.99% and 53.20%
Glucose labeling, UDP-Glc (C00029) (listed as V): 98.27% and 97.52% and 97.62% and 96.48% and 95.86% and 94.41%
Glucose labeling, UDP-GlcNAc (C00043) (listed as V): 91.42% and 92.87% (2×) and 89.85% and 89.76% and 89.80%
Glucose labeling, UMP (C00105) (listed as V): 70.24% and 69.75% and 64.97% and 37.55% and 64.64% and 60.30%
Glucose labeling, UTP (C00075) (listed as V): 73.32% and 70.31% and 75.59% and 75.28% and 69.74% and 72.15%
Glucose labeling, Uracil (C00106) (listed as V): 0.06% and 0.05% and 0.00305% and 0.0378% and 0.0737% (2×)
Glucose labeling, Urocanate (C00785) (listed as V): 0.00% (5×) and -2.22e-14%
Glucose labeling, Val (C00183) (listed as V): 0.00% (5×) and -2.22e-14%
Glucose labeling, Vit-C (C00072) (listed as V): 0.00% (5×) and -2.22e-14%
Glucose labeling, Xanthine (C00385) (listed as V): 0.12% (2×) and 0.06% and 0.0856% and 0.09% (2×)
Relative level, Lac (listed as V): 1.3 (2×) and 1.2 and 0.857 and 0.476 and 0.85
Relative level, Leu/Ile (listed as V): 1.4 and 1.5 (2×) and 0.9 (2×) and 1.0
Relative level, Lys (listed as V): 1.7 and 1.9 and 1.8 and 0.9 and 1.0 and 1.2
Relative level, Mal (listed as V): 1.3 and 0.7 and 0.752 and 0.6 and 0.471 and 0.4
Relative level, Met (listed as V): 1.5 (3×) and 0.9 (2×) and 1.0
Relative level, N-Carbamoyl-L-aspartate (listed as V): 1.0 and 0.6 and 0.7 and 0.749
Relative level, NAD+ (listed as V): 1.0 and 0.9 (2×) and 0.647 and 0.7 and 0.752
Relative level, NADP+ (listed as V): 0.455 and 0.8 and 0.9 and 0.657 and 0.3
Relative level, Nicotinamide (listed as V): 1.2 (2×) and 1.1 and 1.0 and 0.9 and 0.854
Relative level, Ornithine (listed as V): 1.1 and 1.4 (2×) and 0.7 and 0.9 and 1.0
Relative level, Orotidine (listed as V): 1.0 (3×) and 0.6 (2×) and 0.567
Relative level, P-Choline (listed as V): 1.3 and 1.1 (2×) and 0.76 and 0.66 and 0.557
Relative level, P-Creatine (listed as V): 1.7 and 0.9 (2×) and 0.7 and 1.5 and 1.2
Relative level, P-EtA (listed as V): 1.1 and 0.7 and 0.6 and 1.7 and 0.744 and 0.5
Relative level, P-Ser (listed as V): 1.0 (2×) and 1.1 and 0.37 and 0.234 and 0.273
Relative level, PEP (listed as V): 0.435 and 0.082
Relative level, Palmitate (listed as V): 0.9 (3×) and 1.1 and 1.2 and 1.0
Relative level, Pantothenate (listed as V): 1.2 and 1.3 and 1.4 and 0.7 and 0.8 (2×)
Relative level, Phe (listed as V): 1.4 and 1.5 (2×) and 0.9 (2×) and 1.0
Relative level, Pipecolate (listed as V): 1.6 and 1.9 and 1.8 and 0.9 (2×) and 1.2
Relative level, Pro (listed as V): 1.3 (2×) and 1.4 and 0.851 and 0.9 (2×)
Relative level, Pro-OH (listed as V): 1.3 and 1.4 (2×) and 0.9 (3×)
Relative level, Pyr (listed as V): 2.1 and 3.2 and 1.3 and 0.7 and 1.1 and 6.3
Relative level, R5P (listed as V): 3.5 and 1.8 and 2.1 and 1.2 and 0.468 and 0.53
Relative level, S7P (listed as V): 3.0 and 1.6 and 2.7 and 1.2 and 0.9 and 0.6
Relative level, SAM (listed as V): 1.6 and 1.7 (2×) and 0.9 and 1.1 (2×)
